Measurements reported in paper PMC7658428, “Pigment Dispersing Factors and Their Cognate Receptors in a Crustacean Model, With New Insights Into Distinct Neurons and Their Functions” (Frontiers in Neuroscience, 2020).
“Also recorded” adds a separate entry of the source. Where no end group is shown, it is not given here.

How the values were obtained:
PDHR 43673 = molecular target: T1, PDHR 43673 (Carcinus maenas, UniProt A0A7G7MT97); assay: heterologous aequorin-based receptor luminescence assay, PDHR 43673; format: cell-based; settings: Ca2+ luminescence; for activation of PDHR 43673 (in words): CHO-K1-Aeq-Gα16 cells
T1 sequence (A0A7G7MT97 1-455): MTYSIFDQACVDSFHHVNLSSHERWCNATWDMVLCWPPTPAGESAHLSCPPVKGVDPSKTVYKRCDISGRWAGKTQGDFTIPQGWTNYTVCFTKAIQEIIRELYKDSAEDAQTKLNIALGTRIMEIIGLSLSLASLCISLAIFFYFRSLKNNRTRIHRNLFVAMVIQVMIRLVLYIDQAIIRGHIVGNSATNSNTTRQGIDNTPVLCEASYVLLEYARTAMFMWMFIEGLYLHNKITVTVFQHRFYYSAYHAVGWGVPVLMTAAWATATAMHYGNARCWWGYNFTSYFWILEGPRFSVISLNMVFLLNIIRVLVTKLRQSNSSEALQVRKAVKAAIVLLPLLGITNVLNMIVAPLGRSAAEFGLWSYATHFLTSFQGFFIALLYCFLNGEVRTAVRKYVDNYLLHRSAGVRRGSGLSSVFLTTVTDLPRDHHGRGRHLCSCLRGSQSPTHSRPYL
Procedure: (§1) PCR of these transcripts was performed as described previously ([Alexander J. et al., 2018]; [Alexander J. L. et al., 2018]). Primer sequences for directional cloning and expression are shown in Supplementary Table 1. Correctly sized PCR products were directionally cloned into pcDNA 3.1 D/V5-His-TOPO plasmids (Invitrogen) and the recombinant vector transformed into TOP 10 competent cells (Invitrogen). Positive clones were cultured overnight in selective LB medium with 100 μg ml^–1 ampicillin, plasmids extracted (FastPlasmid Mini Kit, 5Prime, Hamburg, Germany), resequenced to confirm insert orientation and verification (MWG Eurofins, Ebersberg, Germany), and analyzed using Geneious V 9.1.8.
(§2) A heterologous cell–based assay using Chinese hamster ovary cells (CHO-K1) expressing apoaequorin (Perkin Elmer, Boston, MA, […]) and either the Gα16 or Gq subunit (control cells) was used to report intracellular Ca^2+ fluxes after exposure to ligand, as previously detailed ([Alexander J. et al., 2018]; [Alexander J. L. et al., 2018]).
(§3) Peptides used in the luminescence assay were synthetic C. maenas PDH-1-3 and e-PDH, DH-31 (Genecust Dudelange, Luxembourg). Peptides were reconstituted in 30% acetonitrile, aliquoted and dried by vacuum centrifugation and subsequently re-dissolved in BSA medium (DMEM/F, 50 mM HEPES, 0.1% BSA) immediately prior to assay, and dispensed into quadruplicate wells of white 96 well plates (OptiPlate, Perkin Elmer). Cell suspensions (5 × 10^6 cells/ml) were stirred gently and 50 μl amounts were injected into each well using a Mithras LB940 microplate reader (Berthold Technologies, Bad-Wildbad, Germany). Ca^2+ evoked luminescence was recorded for 40 s, followed by cell lysis (injection of 0.3% Triton-X 100 in BSA medium), and light emission recorded for a further 10 s. BSA medium was used for blank measurements (6 replicates per plate), and mock transfections with empty vectors for negative controls. Data reduction and analysis was done using MikroWin v5.18 (Mikrotek Laborsysteme, GmBH, Overath, Germany) and SigmaPlot v.13 (Systat Software Inc., San José CA, United States). Receptor responses were normalized against total Ca^2+ luminescence.

PDHR 41189 = molecular target: T2, PDHR 41189 (Carcinus maenas, UniProt A0A7G7MT96); assay: heterologous aequorin-based receptor luminescence assay, PDHR 41189; format: cell-based; settings: Ca2+ luminescence; for activation of PDHR 41189 (in words): CHO-K1-Aeq-Gα16 cells
T2 sequence (A0A7G7MT96 1-455): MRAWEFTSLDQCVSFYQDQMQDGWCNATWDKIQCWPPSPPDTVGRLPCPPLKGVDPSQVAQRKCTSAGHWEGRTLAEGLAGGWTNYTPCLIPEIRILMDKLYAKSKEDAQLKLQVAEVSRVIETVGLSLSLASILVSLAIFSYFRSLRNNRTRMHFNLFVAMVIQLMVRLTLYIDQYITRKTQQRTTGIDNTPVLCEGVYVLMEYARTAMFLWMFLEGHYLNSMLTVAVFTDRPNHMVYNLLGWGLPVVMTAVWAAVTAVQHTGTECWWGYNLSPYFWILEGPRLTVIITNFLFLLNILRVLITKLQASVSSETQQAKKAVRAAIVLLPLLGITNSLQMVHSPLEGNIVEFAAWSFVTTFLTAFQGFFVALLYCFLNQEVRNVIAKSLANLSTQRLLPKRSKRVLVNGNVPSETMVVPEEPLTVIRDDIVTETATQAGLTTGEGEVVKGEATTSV
Procedure: as §1, §2, §3

[1] = system: red chromatophores (erythrophores) in the dactyl of the last walking leg; assay: chromatophore dispersion bioassay in vivo, red chromatophores (erythrophores); parameters: species or system Carcinus maenas; settings: n = 6 crabs; for dose giving significant dispersion of red chromatophores (erythrophores): 40 min after injection, 10 μl, p < 0.05, Hogben-Slome index; for dispersion of red chromatophores (in words): significant responses to doses of around 0.5 pmol per crab 40 min after injection
Procedure: (§4) The pigmentary effector activity of all PDHs was measured in vivo using small (15–20 mm carapace width) C. maenas, which were light adapted against a white background (300 lux for 1 h). Pigment dispersion of the red and black chromatophores in the dactyl of the last walking leg was observed microscopically and indices of dispersion scored ([Hogben and Slome, 1931]). Peptides were reconstituted in physiological saline ([Saver et al., 1999]) immediately prior to assay, to minimize Met oxidation (storage of reconstituted peptides in frozen saline for extended periods completely abolished biological activity) and injected (10 μl) using hand-drawn, calibrated microcapillaries at 50–0.05 pmol per crab, with saline controls. Chromatophore dispersion indices were scored at 20 min intervals for 1 h.
(§5) FIGURE 9 The effect of PDHs on pigment migration in epidermal chromatophores of the 5th walking leg dactylus of C. maenas. Left panel: erythrophores, right panel: melanophores. Peptides were injected at 0.05–5 pmol per crab for PDH-1, -2, 5–50 pmol per crab for PDH-3, e-PDH, in 10 μl volumes. Mean (n = 6 crabs) chromatophore indices (Hogben-Slome) are indicated. Asterisks indicate significant differences in chromatophore stage (p < 0.05, Wilcoxon sign-rank test) 40 min after injection of peptide, compared to 0 min.

[2] = system: black chromatophores (melanophores) in the dactyl of the last walking leg; assay: chromatophore dispersion bioassay in vivo, black chromatophores (melanophores); parameters: species or system Carcinus maenas; settings: injected 0.05–5 pmol per crab; n = 6 crabs; melanophores were invariably partially dispersed in all crabs
Procedure: as §4, §5

[3] = system: red and black chromatophores in the dactyl of the last walking leg; assay: chromatophore dispersion bioassay in vivo, red and black chromatophores; parameters: species or system Carcinus maenas; settings: n = 6 crabs; for potency in chromatophore dispersion assay (in words): injected 0.05–5 pmol per crab
Procedure: as §4, §5

anti-PDH antiserum R171 = assay: enzyme immunoassay (EIA), cross-reactivity with PDH antiserum R171; format: binding; settings: for dose required to give an absorbance of 1.0 in the EIA: PDH antiserum R171 raised to PDH-1, 1:2000, absorbance at 405 nm
Procedure: Fixed nervous systems were processed for whole mount IHC as previously described ([Webster et al., 2013]). In some, whole eyestalks, including cuticle were taken from postmolt crabs, and routinely fixed (Bouin’s) and processed for paraffin wax embedding; thick serial sections (25–30 μm) were then prepared and processed for IHC. Primary antiserum concentrations [anti-PDH code R171, raised to a thyroglobulin conjugate of PDH-1 as described ([Dircksen et al., 1987]) and characterized ([Wilcockson et al., 2011])] was 1:2000. Secondary antiserum dilution (Alexa Fluor 488 goat anti-rabbit, Invitrogen, Thermo Fisher Scientific) was 1:750. Preparations were mounted on cavity slides using Vectashield (VectorLabs, United Kingdom), cover slipped, sealed with nail varnish, and images collected and Z-stacked at 5 μm intervals on a Zeiss 710 confocal microscope equipped with Zen Black edition software (Carl Zeiss, Jena, Germany).
To identify the neurohormonal PDH inventory, 50 sinus glands (SG) were extracted in 2 M acetic acid and separated by HPLC. Conditions: 4.6 mm × 300 mm Jupiter C18 300 Å column (Phenomenex, Macclesfield, United Kingdom) 40–80% solvent B over 30 min, 1 ml/min, detection at 210 nm, solvent A, 0.11% trifluoroacetic acid (TFA); solvent B 60% acetonitrile, 0.1% TFA. Fractions (1 ml) were dried by vacuum centrifugation and reconstituted in 0.1 M bicarbonate buffer, pH 9.3 immediately prior to immunoassay. Standard PDHs (800 pmol) were subsequently chromatographed to establish SG fractions for further MS analysis. PDH immunoreactive fractions were identified by enzyme immunoassay (EIA). Reconstituted fractions (100 μl) were coated onto high protein binding microplates (Costar 3590, Corning, VWR International, United Kingdom), overnight at 4 °C, followed by washing (3 times with 0.1 M bicarbonate buffer), blocking (0.1% BSA, 1 h RT) and incubation in 100 μl/well 1:2000 anti-PDH in containing 0.1% Tween 20 (PBST), overnight 4 °C. After washing (5 times with PBST), plates were incubated in 1:5000 goat anti-rabbit peroxidase labeled IgG (Vector laboratories, United Kingdom), for 6 h, RT. After washing (5 times with PBST), peroxidase activity was visualized (0.04% ABTS, 0.01% H2O2 (30%), 0.1 M phosphate/citrate buffer, pH 4.0). PDH-1 2500-2.5 fmol per well was used to generate standard curves for quantification. Absorbance at 405 nm was measured on a microplate reader (Mithras LB 940) with data analysis (MikroWin v5.18).

| Substance | activation of PDHR 43673 (in words) (PDHR 43673) | activation of PDHR 41189 (in words) (PDHR 41189) | dose giving significant dispersion of red chromatophores (erythrophores) [1] | dispersion of red chromatophores (in words) [1] | dispersion of black chromatophores (melanophores) (in words) [2] | potency in chromatophore dispersion assay (in words) [3] | specificity of antiserum (in words) (anti-PDH antiserum R171; PDH antiserum R171) | dose required to give an absorbance of 1.0 in the EIA (anti-PDH antiserum R171) | dispersion of red chromatophores at the lowest dose (in words) ([1]; lowest dose, 50 fmol per crab) | chromatophore-dispersing activity (in words) ([3]; 5–50 pmol per crab, highest dose 50 pmol per crab) | EC50 (PDHR 43673; approximate EC50, CHO-K1-Aeq-Gα16 cells transiently expressing PDHR 43673, means of N = 4, normalized against maximum luminescence responses for PDH-1) [µM] | EC50 (PDHR 41189; approximate EC50, CHO-K1-Aeq-Gα16 cells transiently expressing PDHR 41189, means of N = 4, normalized against maximum luminescence responses for PDH-1) [µM] |
| --- | --- | --- | --- | --- | --- | --- | --- | --- | --- | --- | --- | --- |
| NSELINSILGLPKVMNDA-NH2 [PDH-1] | activated by PDH-1 and PDH-2 at low nanomolar doses; also recorded: much more sensitive and larger luminescence responses; also recorded: activated the 43673 receptor in the low nanomolar range; also recorded: pronounced selectivity for PDH-1, -2 | high nanomolar concentrations of PDH-1, -2 were needed to result in a luminescent signal | around 0.5 pmol per crab | effective in dispersing red chromatophores (erythrophores) | also dispersed black chromatophores (melanophores), but to a lesser extent | exhibit biological activity in the chromatophore dispersion assay | rather marked specificity to PDH-1; also recorded: marked selectivity for this peptide | 150 fmol | – | – | – | – |
| NSELINSLLGLSRLMNEA-NH2 [PDH-2] | activated by PDH-1 and PDH-2 at low nanomolar doses; also recorded: much more sensitive and larger luminescence responses; also recorded: activated the 43673 receptor in the low nanomolar range; also recorded: pronounced selectivity for PDH-1, -2 | high nanomolar concentrations of PDH-1, -2 were needed to result in a luminescent signal | around 0.5 pmol per crab | effective in dispersing red chromatophores (erythrophores) | also dispersed black chromatophores (melanophores), but to a lesser extent | exhibit biological activity in the chromatophore dispersion assay; also recorded: very potent in the chromatophore dispersion assay | – | > 10,000 fmol | some pigment dispersion was observed at the lowest dose (50 fmol per crab) although this was transient and statistically not significant | – | – | – |
| NSELINTLLGSQDLGNMRNA-NH2 [e-PDH] | micromolar concentrations of PDH-3 and e-PDH were necessary to activate this receptor; also recorded: even micromolar concentrations of PDH-3 and e-PDH were needed to produce rather weak luminescence responses | activated by PDH-3 and an extended 20 residue e-PDH; also recorded: activated by PDH-3 and e-PDH at low nanomolar concentrations; also recorded: low nanomolar concentrations of PDH-3 and e-PDH activated this receptor; also recorded: preferentially activated by PDH-3 and e-PDH | – | – | – | – | – | 8000 fmol | – | entirely without chromatophore-dispersing activity, even at the highest dose used | – | – |
| PDH-3: synthetic C. maenas pigment dispersing hormone 3, 18 residues, C-terminal Ala-amide; MN602309 | – | – | – | – | – | – | – | – | – | – | 10 | 0.025 |
| diuretic hormone-31 [DH-31, reference compound] | Neither receptor was activated by DH-31 | Neither receptor was activated by DH-31 | – | – | – | – | – | – | – | – | – | – |
